In ChEMBL document CHEMBL1144061, “Biologically active triterpene saponins from callus tissue of Polygala amarella” (J Nat Prod, 1999):

Columns and labels:
[1] = Cytotoxicity against human granulocytes upto 100 ug/mL
[2] = Induction of human granulocyte phagocytosis at 10 to 100 ug/mL; assay type: functional

C[C@H]1O[C@@H](OC(=O)[C@]23CCC(C)(C)C[C@H]2C2=CC[C@@H]4[C@@]5(C)C[C@H](O)C(O[C@@H]6O[C@H](CO)[C@@H](O)[C@H](O)[C@H]6O)[C@@](C)(C(=O)O)[C@@H]5CC[C@@]4(C)[C@]2(CO)CC3)[C@H](O[C@@H]2O[C@H](C)[C@H](O[C@@H]3OC[C@@H](O)[C@H](O[C@@H]4O[C@H](CO)[C@H](O)[C@H](O)[C@H]4O)[C@H]3O)[C@@H](O)[C@H]2O)[C@@H](O[C@@H]2O[C@H](CO)[C@@H](O)[C@H](O)[C@H]2O)[C@H]1O (some centres not stated)
Activity [1]: Non-toxic
Activity [2]: 60%
